Results reported in article PMC3632207 (Journal of medicinal chemistry, 2013).

Molecular target: rat nNOS (Rattus norvegicus, UniProt P29476)
Assay: NOS inhibition, hemoglobin capture assay
Type: biochemical
Settings: data not shown

Competition with H4B: not to be competitive with H4B
SMILES: Cc1cc(N)nc(CCc2cc(CCCN)cc(CCc3cc(C)cc(N)n3)c2)c1 [Compound 4, 6,6'-((5-(3-Aminopropyl)-1,3-phenylene)bis(ethane-2,1-diyl))bis(4-methylpyridin-2-amine)]
